Drawing on article PMC9254247, “Dual-sensitive antibacterial peptide nanoparticles prevent dental caries” (Theranostics, 2022), this text covers HC50 for one substance.

No end group written: not given here.

The subject of the data set is fresh mice erythrocytes. Format: cell-based, mouse. Particulars: PBS pH 7.4; 30 min; 37 °C. The source says: Peptide and different pH of culture medium prepared. The pH of BHI medium was adjusted by HCl and NaOH. All peptides, including lycosin- I, pHly-1, s-pHly-1 were synthesized on a Rink amide-AM resin using the SPPS
(9- fluorenyl-methoxycarbonyl solid-phase peptide synthesis) method as reported previously1. Then peptides were cleaved from the resin using TFA/1,2- ethanedithiol/thioanisole/anisole (90/5/3/2 (v/v)), precipitated in cold diethyl ether and the collected precipitate was dried by air -drying . The prepared peptides were purified by reverse phase- HPLC (RP-HPLC) and their molecular weights were determined by MALDI-TOF MS.
Hemolytic assay. Approximately 4 % (in volume) of the mouse erythrocyte s were prepared by diluting fresh erythrocytes to 25-fold dilution with PBS buffer (pH 7.4).
The stock peptide solution ([…]) diluted by PBS solution to reach various concentrations (200 μL) was placed in a 1.5 mL sterile microfuge tube, followed by the addition of 200 μ L o f erythrocyte suspension. The mixture was incubated at 37 °C for 30 min. Then, the mixture was centrifuged at 3,500 rpm for 5 min to collect the supernatant. Aliquots (100 μL) of the supernatant were removed to 96-well plates, and the absorbance was detected at 450 nm using a microplate reader (Multiskan Spectrum, BioTek Inc., USA). Untreated erythrocyte suspension in an equal volume of PBS solution and 0.1% Triton X-100 were used as the negative control and positive […]
Isolation and culture of clinical S.mutans strains. Ethical approval of the study and the written consent/permission forms were obtained from Institutional Review Board (IRB) at Hunan Normal University prior to the study. For each child, written permission form was reviewed and signed by their legal guardians. Plaque -biofilm samples were collected from patients, including 16 Middle-aged and young patients and 4 children (age between 48 and 72 months) diagnosed with severe early childhood caries (S-ECC) in Changsha Stomatological Hospital. […]

As to “LHQHLHQHAIFHAIIHMAHFWIK-NH2 [s-pHly-1 NPs]”, the HC50 (usually the concentration giving 50% haemolysis) amounted to 423.0 µM.
